The supplement of paper PMC13380429

Legend:
Settings in all cases: 72 h
[1] = test system: Calu-3; experiment: relative viability EC50 (midpoint between 100% and the lowest measured viability); higher = less toxic
[2] = test system: HepG2; experiment: as above
[3] = test system: Vero E6; experiment: as above
[4] = test system: Caco-2; experiment: as above
[5] = test system: U2OS; experiment: as above
[6] = test system: Calu-3; experiment: cell viability relative to DMSO; higher = less toxic
[7] = test system: HepG2; experiment: as above
[8] = test system: Vero E6; experiment: as above
[9] = test system: Caco-2; experiment: as above
[10] = test system: U2OS; experiment: as above
[11] = test system: Calu-3; experiment: drug sensitivity score (DSS) for viability; higher = more toxic; extreme values may be limits of the assay
[12] = test system: HepG2; experiment: as above
[13] = test system: Vero E6; experiment: as above
[14] = test system: Caco-2; experiment: as above
[15] = test system: U2OS; experiment: as above

SMILES	relative viability EC50 [1]	relative viability EC50 [2]	relative viability EC50 [3]	relative viability EC50 [4]	relative viability EC50 [5]	cell viability ([6]; 1 nM)	cell viability ([6]; 10 nM)	cell viability ([6]; 100 nM)	cell viability ([6]; 1000 nM)	cell viability ([6]; 10000 nM)	cell viability ([7]; 1 nM)	cell viability ([7]; 10 nM)	cell viability ([7]; 100 nM)	cell viability ([7]; 1000 nM)	cell viability ([7]; 10000 nM)	cell viability ([8]; 1 nM)	cell viability ([8]; 10 nM)	cell viability ([8]; 100 nM)	cell viability ([8]; 1000 nM)	cell viability ([8]; 10000 nM)	cell viability ([9]; 1 nM)	cell viability ([9]; 10 nM)	cell viability ([9]; 100 nM)	cell viability ([9]; 1000 nM)	cell viability ([9]; 10000 nM)	cell viability ([10]; 1 nM)	cell viability ([10]; 10 nM)	cell viability ([10]; 100 nM)	cell viability ([10]; 1000 nM)	cell viability ([10]; 10000 nM)	drug sensitivity score [11]	drug sensitivity score [12]	drug sensitivity score [13]	drug sensitivity score [14]	drug sensitivity score [15]
CCOC(=O)C1=C(C)NC(C)=C(C(=O)OC)[C@@H]1c1cccc([N+](=O)[O-])c1 (racemic) [nitrendipine]	> 10 µM	> 10 µM	> 10 µM	> 10 µM	> 10 µM	89.5%	92.3%	105%	86.5%	87.1%	108%	102%	89%	104%	92.7%	102%	106%	98.5%	105%	103%	81.3%	92.4%	96.2%	90.2%	82.9%	98.5%	96.9%	98.7%	95.4%	95.6%	0	0	0	0	0
N#Cc1ncccn1 [2-cyanopyrimidine]	> 10 µM	> 10 µM	> 10 µM	> 10 µM	> 10 µM	102%	99.3%	101%	91.6%	96.9%	102%	100%	93.7%	93.6%	111%	93.8%	104%	97%	106%	94.6%	98.5%	93.7%	101%	99.3%	102%	100%	104%	96.7%	99.6%	97.9%	0	0	0	0	0
C=CCN1CCN(c2nc3ccccc3nc2C#N)CC1 [3-AQC]	> 10 µM	> 10 µM	> 10 µM	> 10 µM	> 10 µM	94.7%	98%	101%	103%	98.1%	94%	104%	96.6%	97.5%	94.2%	94.9%	102%	92.6%	104%	108%	102%	99.9%	103%	101%	95.2%	100%	101%	101%	97.9%	97.1%	0	0	0	0	0
Cc1ccc(C[N+](C)(C)C)o1 [5-methylfurmethiodide]	> 10 µM	> 10 µM	> 10 µM	> 10 µM	> 10 µM	108%	103%	93.9%	100%	101%	104%	108%	93.8%	103%	90.2%	104%	103%	97.5%	107%	99.9%	99.1%	105%	103%	96.3%	108%	101%	99.7%	102%	98.7%	103%	0	0	0	0	0
[N-]=[N+]=CC(=O)CC[C@H](N)C(=O)O [6-diazo-5-oxo-L-norleucine]	> 10 µM	> 10 µM	> 10 µM	> 10 µM	> 10 µM	102%	90.6%	96.4%	95.2%	98.1%	97%	105%	98.8%	97.2%	112%	94.2%	95.8%	86.8%	95.6%	103%	95.4%	90%	97.8%	95.8%	92.7%	104%	102%	104%	98.3%	104%	0	0	0	0	0
CCCCC/C=C\C/C=C\C/C=C\C/C=C\CCCC(=O)Nc1ccc(O)cc1 [AM-404]	> 10 µM	> 10 µM	> 10 µM	> 10 µM	> 10 µM	104%	93.1%	96.8%	99.1%	102%	110%	104%	93.9%	107%	87.6%	105%	106%	92.9%	102%	96.5%	95.3%	98.2%	103%	100%	95%	96.9%	95.2%	100%	93.8%	96.3%	0	0	0	0	0
COc1ccc2c(OCc3nnc4ccc(-c5ccccc5)nn34)ccnc2c1 [AMG-208]	> 10 µM	> 10 µM	> 10 µM	> 10 µM	> 10 µM	108%	99.8%	97.3%	92.2%	97%	99.4%	99.9%	101%	97%	104%	95.6%	92.1%	93.9%	104%	91.2%	99.8%	95.9%	104%	100%	91%	104%	95.5%	102%	103%	99%	0	0	0	0	0
O=C(Nc1ccccc1C(=O)NC1CCCCNC1=O)c1cc2ccccc2s1 (centres undefined) [ANA-12]	> 10 µM	> 10 µM	> 10 µM	> 10 µM	> 10 µM	99.6%	95.3%	101%	94.7%	87.7%	104%	93.1%	100%	91.4%	98.4%	100%	99.3%	99.8%	89.5%	104%	90.9%	97.4%	96.1%	106%	96.4%	97.8%	101%	91.5%	104%	96.7%	0.3	0	0	0	0
CC(C)[C@H](C(=O)Nc1ccc(C(=O)NO)cc1)c1ccccc1 [AR-42]	0.371 µM	0.271 µM	0.26 µM	0.498 µM	0.328 µM	96.5%	90.5%	83%	36%	12%	91.7%	103%	75.3%	18.6%	0%	97%	95.4%	88.7%	5.2%	-0.1%	101%	95%	97.6%	18%	1.2%	98.9%	97.3%	86.5%	15.4%	0.3%	14.2	18	18.9	15.3	17.2
O=C1O[C@H]([C@@H](O)CO)C(O)=C1O [ASCORBIC ACID]	> 10 µM	> 10 µM	> 10 µM	> 10 µM	> 10 µM	105%	95.5%	110%	96.3%	108%	99.6%	98.3%	108%	93.4%	101%	99.7%	112%	106%	103%	103%	103%	95.9%	100%	100%	98.4%	109%	98.8%	99.8%	100%	102%	0	0	0	0	0
O=CN1CCC(C(=O)NCCN2CCC(=C3c4ccccc4C=Cc4ccccc43)CC2)CC1 [AT-1015]	> 10 µM	> 10 µM	> 10 µM	> 10 µM	> 10 µM	93.2%	103%	89.2%	97.7%	88.7%	104%	99.9%	98.2%	102%	77%	104%	108%	110%	103%	99.8%	101%	108%	104%	105%	93.8%	96.3%	97.4%	94.8%	96.8%	91.4%	0	0.7	0	0	0
CC(=O)Nc1ccccc1 [acetanilide]	> 10 µM		> 10 µM	> 10 µM	> 10 µM	95%	94.6%	103%	98.2%	99.8%						109%	93.7%	102%	103%	104%	98.1%	101%	94.5%	107%	94.4%	105%	99%	103%	99.1%	98.9%	0		0	0	0
Cc1ccc2nc(N)[nH]c(=O)c2c1Sc1ccncc1 [nolatrexed]	> 10 µM		> 10 µM	> 10 µM	> 10 µM	97.9%	93.4%	85.8%	96.9%	99.1%	107%	99.5%	97.1%	101%	71.6%	103%	97.2%	99.8%	98.9%	83.1%	98.2%	98.7%	101%	104%	80.3%	94.3%	99.3%	92.4%	101%	94.3%	0	1.1	0.5	0.4	0
Cc1cncc(CN2CCC(=C3c4ccc(Cl)cc4CCc4cccnc43)CC2)c1 [rupatadine]	> 10 µM		> 10 µM	> 10 µM	> 10 µM	105%	97.1%	99.9%	109%	113%	112%	100%	99.2%	95.5%	71.9%	99%	102%	96.8%	100%	102%	98.3%	102%	93.8%	90.2%	88.3%	101%	91.9%	99.5%	95.6%	90.3%	0	1.9	0	0.7	0
CCCCOC(=O)c1ccccc1Nc1cccc(C(F)(F)F)c1 [ufenamate]	> 10 µM		> 10 µM	> 10 µM	> 10 µM	105%	87.3%	91.8%	93.7%	94.7%						110%	104%	106%	106%	98.5%	96.2%	102%	94.4%	93.7%	98.1%	91.7%	98.7%	92.4%	100%	108%	0		0	0	0
